The numbers were not newly measured in US9107877B2, “Method of treating onychomycosis” (Polichem SA, priority 2013, dated 2015), which cites them from elsewhere.

Data set [1] has as its system onychomycosis. The note with it: oral, 250 mg tablet a day for 12 weeks.
Data set [2] deals with onychomycosis. The note with it: 48 weeks of daily topical treatment, 12-week follow up.

In the case of `CN(C/C=C/C#CC(C)(C)C)Cc1cccc2ccccc12` [terbinafine], the “Complete cure, % of patients” value in the data set with onychomycosis [1] was 38%. As to `Cc1cc(C2CCCCC2)n(O)c(=O)c1` [ciclopirox], in the data set with onychomycosis [2], the Complete cure result was “about 13%” and the Responders is given as about 30%.
